Laboratory results: US9951035B2, “Selective matrix metalloproteinase inhibitors” (University of Notre Dame du Lac, priority 2014, dated 2018)
Converted amounts (≈) assume the structure as drawn. “And” between values parts separate entries of the source, which are not always exact repeats. Identical values can stand only once. “Also recorded” adds a separate entry of the source.

Assays:
diabetic (db/db) mice = assay: Mouse diabetic wound model; type: in vivo; conditions: for wound healing versus vehicle: 0.25 mg/wound/day; for wound healing versus vehicle / wound closure: db/db mice; for wound closure: 0.25 mg/wound/day topical
Source text: The excisional mouse diabetic model validated by Sullivan et al. was used (Sullivan et al., Plast. Reconstr. Surg. (2004) 113, 953-960). The procedure for inflicting the wounds (single 8 mm wound on the dorsal region) was the same as described previously (Gooyit et al., ACS Chem. Biol. (2014) 9, 505-510). Wounds were photographed and covered with a sterile 3M Tegaderm™ transparent dressing (Butler Schein Animal Health, Inc.).
Female diabetic db/db (BKS.Cg-Dock7m+/+Leprdb/J, 8-weeks old, 38±3 g, n=24) were used for this study. Wounds were inflicted as described. Treatment with the MMP-2 inhibitor (50 μL of 5.0 mg/mL in 80% propylene glycol/20% DMSO, equivalent to 0.25 mg per wound) or vehicle (50 μL of 80% propylene glycol/20% DMSO) was started one day after wound infliction and continued once a day for 14 days. Digital photographs of wounds were taken on days 0, 7, 10, and 14 while the animals were under isoflurane anesthesia. On day 14, all mice were sacrificed. The wounds were excised, embedded in optimal cutting temperature (OCT) compound, and cryosectioned for histological evaluation.
Female diabetic db/db (BKS.Cg-Dock7m+/+Leprdb/J, 8-weeks old, 38±3 g, n=24) were used for this study. Wounds were inflicted and the following day the wounds were treated topically with MMP-8 (50 μL of 20 μg/mL MMP-8 in reaction buffer) or vehicle (50 μL reaction buffer) once a day for 14 days. The reaction buffer consisted of 50 mM Tris (pH 7.5), 10 mM CaCl2, 150 mM NaCl, and 0.05% (w/v) Brij-35. Digital photographs of the wounds were taken on days 0, 7, 10, and 14 while animals were under isoflurane anesthesia. On days 7 and 14, 12 mice (n=6 per group) were sacrificed. The wounds were excised, embedded in OCT compound, and cryosectioned for histological evaluation.
Photographs were taken using the procedure described by Gooyit et al. (ACS Chem Biol. (2014) 9, 505-510) at a fixed distance above the wounds and calibrated using a ruler included in the photographic frame. Image J 1.48c software was used to calculate wound areas. The percentage of wound closure was calculated from the wound area on the specified day relative to that on day 0.
Fresh wound tissue was harvested and embedded in OCT compound. Subsequently, the tissue was cryosectioned for H&E staining (12-μm thickness) and for apoptosis assays and in-situ zymography (8-μm thickness). Re-epithelialization was assessed on a Nikon Eclipse 90i Fluorescent Microscope (Nikon Instruments Inc.) as described earlier (Tkalcevic et al., Toxicol. Pathol. (2009) 37, 183-192). Apoptosis was evaluated using Derma TACS™ Apoptosis detection kits (Trevigen, Inc.) according to the manufacturer's instructions. The protocol of in-situ zymography was adapted from known methods. Gelatinolytic activity was detected in unfixed cryostat sections using DQ-gelatin as a substrate. DQ-gelatin was prepared at a concentration of 20 μg/mL in Tris-buffered saline (TBS) buffer (50 mM TBS pH 7.6, 1 mM CaCl2). A general MMP inhibitor in 0.5 mM EDTA was prepared as a negative control. Cryostat sections were air-dried for 10 min and incubated in the substrate mixture in the presence and absence of EDTA for 1 hr at room temperature. After the incubation period, the slides were washed in PBS (three times, 5 min each), fixed with 4% paraformaldehyde in PBS for 10 min in the dark, washed again with PBS (three times, 5 min each), incubated in the dark for 5 min with 300 nM DAPI solution, and mounted with anti-quenching mounting medium. Fluorescence of FITC was detected with excitation at 460-500 nm and emission at 512-542 nm. DAPI was detected with excitation at 340-380 nm and emission at 425-∞ nm.
Data are expressed as mean±SD. Wound healing between the groups in the studies were analyzed for statistical significance using a paired Student t-test, where p<0.05 was considered statistically significant.

MMP-2 [1] = target: T1, MMP-2 (Homo sapiens (Human), UniProt P08253); conditions: literature / previously reported; cited from earlier work
MMP-9 [2] = target: T2, MMP-9 (Homo sapiens (Human), UniProt P14780); conditions: cited from earlier work
MMP-2 [3] = target: T1, MMP-2; assay: Enzyme inhibition studies, MMP-2; type: biochemical; conditions: slow-binding; Ki calculated from koff/kon; read-out: Ki
MMP-9 [4] = target: T2, MMP-9; assay: Enzyme inhibition studies, MMP-9 catalytic domain; type: biochemical; conditions: at 50 μM
MMP-14 [5] = target: T3, MMP-14 (Homo sapiens (Human), UniProt P50281); assay: Enzyme inhibition studies, MMP-14 catalytic domain; type: biochemical; conditions: at 50 μM
MMP-1 = MMP-1 (Homo sapiens (Human), UniProt P03956); assay: Enzyme inhibition studies, MMP-1 catalytic domain; type: biochemical
MMP-3 = MMP-3 (Homo sapiens (Human), UniProt P08254); assay: Enzyme inhibition studies, MMP-3 catalytic domain; type: biochemical; conditions: at 100 μM
MMP-7 = MMP-7 (Homo sapiens (Human), UniProt P09237); assay: Enzyme inhibition studies, MMP-7; type: biochemical
MMP-8 = MMP-8 (Homo sapiens (Human), UniProt P22894); assay: Enzyme inhibition studies, MMP-8 catalytic domain; type: biochemical; conditions: Ki, catalytic domain; linear noncompetitive or linear competitive mechanism as footnoted
ADAM9 = ADAM9 (Homo sapiens (Human), UniProt Q13443); assay: Enzyme inhibition studies, ADAM9; type: biochemical; conditions: at 100 μM
ADAM10 = ADAM10 (Homo sapiens (Human), UniProt O14672); assay: Enzyme inhibition studies, ADAM10; type: biochemical; conditions: at 100 μM
[6] = Stability in buffers of the kinetic assays; type: physicochemical
Source text: Human recombinant active MMP-2 and MMP-7, and the catalytic domains of MMP-3 and MMP-14/MT1-MMP were purchased from EMD Chemicals, Inc. (San Diego, Calif., USA); human recombinant catalytic domains of MMP-1, MMP-8, and MMP-9 were purchased from Enzo Life Sciences, Inc. (Farmingdale, N.Y., USA); human recombinant active ADAM9 and ADAM10 were purchased from R&D Systems (Minneapolis, Minn., USA). Fluorogenic substrates MOCAc-Pro-Leu-Gly-Leu-A2pr(Dnp)-Ala-Arg-NH2 (for MMP-2, MMP-7, MMP-9 and MMP-14) and MOCAc-Arg-Pro-Lys-Pro-Val-Glu-Nva-Trp-Arg-Lys(Dnp)-NH2 (for MMP-3) were purchased from Peptides International (Louisville, Ky., USA); Mca-KPLGL-Dpa-AR-NH2 (for MMP-1, MMP-8 and ADAM10) and Mca-PLAQAV-Dpa-RSSSR-NH2 (for ADAM9) were purchased from R&D Systems (Minneapolis, Minn., USA). […] Inhibitor stock solutions (10 mM) were prepared fresh in DMSO before enzyme inhibition assays. We followed the same methodology for enzyme inhibition studies as reported by Page-McCaw et al. (Nat. Rev. Mol. Cell Biol. 2007, 8, 221-233). Enzyme inhibition studies were carried out using a Cary Eclipse fluorescence spectrophotometer (Varian, Walnut Creek, Calif., USA). Compounds 4, 5, 6 and 7 were stable in the buffers that were used in the kinetic assays.

[7] = mouse, in vivo, iv, 5 mg/kg
Description: (§1) Mice (male CD-1, 6-7 weeks old, ˜30 g body weight, specific pathogen free) were purchased from Charles River Laboratories, Inc. (Wilmington, Mass., USA).
(§2) Samples were analyzed by ultraperformance liquid chromatography (UPLC)/(+)electrospray ionization (ESI)-multiple-reaction monitoring (MRM) with a reversed phase C18 column (Acclaim® RSLC 120 C18, 2.2 μm, 120 Å, 2.1×100 mm, Dionex, Sunnyvale, Calif., USA).
(§3) Quantification of the compounds in plasma and brain was obtained using peak-area ratios of the compounds to the internal standard, and the linear-regression parameters obtained from the calibration curves.

in vivo = conditions: male, CD-1, mouse, iv, 5 mg/kg
Description: as §1, §2, §3

physchem = conditions: water, thermodynamic from solid
[8] = Pharmacokinetics and brain distribution after single iv dose
Description: as §1, §2, §3

MMP-14 [9] = target: T3, MMP-14; conditions: literature; cited from earlier work
[10] = 2 min after 5 mg/kg single iv, mice
[11] = male, CD-1, mouse, in vivo, 5 mg/kg
[12] = plasma, 5 mg/kg single iv, mice

T2 sequence (P14780 107-444): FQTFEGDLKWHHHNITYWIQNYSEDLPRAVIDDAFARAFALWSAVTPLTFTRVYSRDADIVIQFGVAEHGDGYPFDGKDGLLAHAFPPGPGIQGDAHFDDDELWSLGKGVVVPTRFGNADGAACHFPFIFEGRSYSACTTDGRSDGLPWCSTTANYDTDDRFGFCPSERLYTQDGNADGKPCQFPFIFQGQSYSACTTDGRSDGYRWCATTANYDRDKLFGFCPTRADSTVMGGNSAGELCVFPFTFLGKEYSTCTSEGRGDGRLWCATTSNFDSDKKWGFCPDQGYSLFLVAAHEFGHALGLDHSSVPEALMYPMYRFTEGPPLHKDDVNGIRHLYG
T1 sequence (P08253 110-660): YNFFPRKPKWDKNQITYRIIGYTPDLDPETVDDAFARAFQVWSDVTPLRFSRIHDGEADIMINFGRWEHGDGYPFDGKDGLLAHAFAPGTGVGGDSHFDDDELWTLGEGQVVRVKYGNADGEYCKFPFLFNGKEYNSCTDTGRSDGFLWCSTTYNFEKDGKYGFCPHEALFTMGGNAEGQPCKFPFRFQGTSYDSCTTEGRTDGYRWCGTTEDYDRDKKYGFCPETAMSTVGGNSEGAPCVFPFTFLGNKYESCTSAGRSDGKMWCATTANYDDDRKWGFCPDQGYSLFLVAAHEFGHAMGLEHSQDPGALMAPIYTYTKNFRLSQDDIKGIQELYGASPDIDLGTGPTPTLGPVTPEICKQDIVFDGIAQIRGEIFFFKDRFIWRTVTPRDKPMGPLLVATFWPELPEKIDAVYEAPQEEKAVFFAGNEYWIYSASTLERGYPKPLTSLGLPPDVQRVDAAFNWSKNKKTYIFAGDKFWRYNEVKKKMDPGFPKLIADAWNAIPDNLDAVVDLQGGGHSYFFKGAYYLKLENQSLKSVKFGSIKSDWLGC
MMP-8, sequence (P22894 100-262): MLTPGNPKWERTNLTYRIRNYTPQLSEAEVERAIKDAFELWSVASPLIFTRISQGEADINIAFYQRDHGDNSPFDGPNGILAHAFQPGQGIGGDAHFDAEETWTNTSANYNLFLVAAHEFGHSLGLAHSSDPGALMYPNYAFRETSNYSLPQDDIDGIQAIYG
ADAM10, sequence (O14672 214-672): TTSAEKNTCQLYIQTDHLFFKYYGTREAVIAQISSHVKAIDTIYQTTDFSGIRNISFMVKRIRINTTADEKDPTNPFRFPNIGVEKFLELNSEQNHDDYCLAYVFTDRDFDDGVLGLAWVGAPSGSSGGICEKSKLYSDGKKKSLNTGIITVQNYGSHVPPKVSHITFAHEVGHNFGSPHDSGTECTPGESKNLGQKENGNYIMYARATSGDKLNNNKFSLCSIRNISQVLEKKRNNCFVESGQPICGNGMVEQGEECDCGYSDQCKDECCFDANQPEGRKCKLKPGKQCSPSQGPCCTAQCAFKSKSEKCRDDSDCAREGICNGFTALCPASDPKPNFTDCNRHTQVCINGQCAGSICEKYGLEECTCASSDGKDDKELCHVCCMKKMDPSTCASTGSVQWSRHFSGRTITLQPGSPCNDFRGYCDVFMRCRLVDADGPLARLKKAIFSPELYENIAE
MMP-7, sequence (P09237 95-267): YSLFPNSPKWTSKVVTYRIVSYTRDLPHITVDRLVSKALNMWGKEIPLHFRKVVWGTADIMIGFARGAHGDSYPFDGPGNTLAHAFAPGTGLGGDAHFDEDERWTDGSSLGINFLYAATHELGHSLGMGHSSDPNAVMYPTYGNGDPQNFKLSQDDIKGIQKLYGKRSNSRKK
MMP-1, sequence (P03956 98-276): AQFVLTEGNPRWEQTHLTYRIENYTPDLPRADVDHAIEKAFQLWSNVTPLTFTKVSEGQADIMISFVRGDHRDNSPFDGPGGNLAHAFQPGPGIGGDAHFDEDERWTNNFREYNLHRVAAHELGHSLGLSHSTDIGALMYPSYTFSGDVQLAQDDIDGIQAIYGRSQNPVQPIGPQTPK
MMP-3, sequence (P08254 100-272): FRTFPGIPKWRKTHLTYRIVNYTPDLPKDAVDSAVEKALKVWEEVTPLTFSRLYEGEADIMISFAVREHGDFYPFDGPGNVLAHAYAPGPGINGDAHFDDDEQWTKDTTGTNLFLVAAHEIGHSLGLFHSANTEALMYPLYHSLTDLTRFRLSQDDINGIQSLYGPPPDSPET
ADAM9, sequence (Q13443 206-697): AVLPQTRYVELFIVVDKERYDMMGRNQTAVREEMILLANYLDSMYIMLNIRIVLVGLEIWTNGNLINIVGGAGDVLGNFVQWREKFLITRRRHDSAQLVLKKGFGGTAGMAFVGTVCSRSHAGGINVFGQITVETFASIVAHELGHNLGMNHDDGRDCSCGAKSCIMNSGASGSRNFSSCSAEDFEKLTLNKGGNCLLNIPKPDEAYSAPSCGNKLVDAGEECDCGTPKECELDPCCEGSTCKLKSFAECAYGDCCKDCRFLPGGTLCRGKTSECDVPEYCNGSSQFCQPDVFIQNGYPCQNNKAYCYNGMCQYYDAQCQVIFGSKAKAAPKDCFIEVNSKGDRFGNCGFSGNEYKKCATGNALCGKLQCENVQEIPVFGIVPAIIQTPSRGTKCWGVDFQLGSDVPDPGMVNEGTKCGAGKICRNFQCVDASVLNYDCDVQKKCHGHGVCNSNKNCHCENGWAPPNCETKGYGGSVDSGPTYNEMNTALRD

CCNC(=O)Nc1ccc(Oc2ccc(S(=O)(=O)CC3CS3)cc2)cc1 (centres unmarked) [Compound 1x]
wound healing versus vehicle (diabetic (db/db) mice; in words): No significant differences | wound healing versus vehicle (diabetic (db/db) mice; in words, listed as MMP-2 inhibitor): No differences were observed between the groups | re-epithelialization (diabetic (db/db) mice; H&E staining, day 14, in words): Partial re-epithelialization | wound closure (diabetic (db/db) mice; day 7): 23±16% | wound closure (diabetic (db/db) mice; day 10): 45±11% | wound closure (diabetic (db/db) mice; day 14): 70±15% | residence time bound to MMP-2 (MMP-2 [1]): 24.5 min | MMP-9 inhibition (MMP-9 [2]; at 50,000 nM, Gooyit et al. 2013): 28%

CC(=O)NCc1ccc(Oc2ccc(S(=O)(=O)CC3CS3)cc2)cc1 (centres unmarked) [Compound 6, N-(4-(4-((Thiiran-2-ylmethyl)sulfonyl)phenoxy)benzyl)acetamide]
Ki (MMP-2 [3]): 230 nM and 234 nM | inhibition at 50 µM (MMP-9 [4]): 23% | Inhibition (MMP-9 [4]; listed as ND-378): Ki (MMP-9) 23% inhibition at 50 μM | inhibition at 50 µM (MMP-14 [5]): 23% | Inhibition (MMP-14 [5]; listed as ND-378): Ki (MMP-14) 23% inhibition at 50 μM | inhibition at 100 µM (MMP-1): 37% | Inhibition (MMP-1; at 100 μM, listed as ND-378): Ki (MMP-1) 37% inhibition at 100 μM | inhibition at 100 µM (MMP-3): 14% | Inhibition (MMP-3; listed as ND-378): Ki (MMP-3) 14% inhibition at 100 μM | inhibition at 100 µM (MMP-7): 5% | Inhibition (MMP-7; at 100 μM, listed as ND-378): Ki (MMP-7) 4.7% inhibition at 100 μM | Ki (MMP-8): 690 nM and 692 nM | inhibition at 100 µM (ADAM9): 31% | Inhibition (ADAM9; listed as ND-378): Ki (ADAM-9) 31% inhibition at 100 μM | inhibition at 100 µM (ADAM10): 8% | Inhibition (ADAM10; listed as ND-378): Ki (ADAM-10) 8% inhibition at 100 μM | stability in the buffers used in the kinetic assays [6]: stable | AUC0-last [7]: 66.5 pmol·min/mg | AUC0-∞ [7]: 67.2 pmol·min/mg | AUC(0-inf) (in vivo): 7.28 µM·h | AUC(0-t) (in vivo): 7.25 µM·h | Vd (in vivo): 0.329 L/kg | clearance (in vivo): 30.3 mL/min/kg | solubility (physchem): 25 µg/mL (≈ 66.2 µM) | clearance as % of hepatic blood flow ([8]; 5 mg/kg single iv, mice): 35% | time brain levels above Ki for MMP-2 ([8]; 5 mg/kg single iv, mice): 30 min | time plasma levels above Ki for MMP-2 ([8]; 5 mg/kg single iv, mice): 30 min | Brain concentration [8, 10]: 5.98±1.48 pmol/mg tissue | Plasma concentration [8, 10]: 35000 ± 7700 nM | Brain concentration ([8]; 5 min after 5 mg/kg single iv, mice): 4.90 ± 4.81 pmol/mg tissue | Brain concentration ([8]; 10 min after 5 mg/kg single iv, mice): 0.954 ± 0.473 pmol/mg tissue | Brain concentration ([8]; 30 min after 5 mg/kg single iv, mice): 0.231 ± 0.122 pmol/mg tissue | Brain concentration ([8]; 60 min after 5 mg/kg single iv, mice): 0.0544 ± 0.0539 pmol/mg tissue | Brain concentration ([8]; 90 min after 5 mg/kg single iv, mice): 0.0263 ± 0.0228 pmol/mg tissue | t1/2α ([8]; brain, 5 mg/kg single iv, mice): 2.89 min | t1/2β ([8]; brain, 5 mg/kg single iv, mice): 19.1 min | crossing of the blood-brain barrier ([8]; in words, listed as ND-378): cross the blood-brain barrier; also recorded: crosses the BBB | concentration at 2 min [8, 11]: 35000 ± 7690 nM | concentration at 5 min [8, 11]: 20300 ± 2800 nM | concentration at 10 min [8, 11]: 14100 ± 5000 nM | concentration at 30 min [8, 11]: 1640 ± 480 nM | concentration at 60 min [8, 11]: 97.9 ± 6.5 nM | concentration at 90 min [8, 11]: 82.7 ± 26.2 nM | concentration at 120 min [8, 11]: 29.7 ± 16.8 nM | concentration at 240 min [8, 11]: 19.3 ± 3.7 nM | Kp ([8]; male, CD-1, mouse, in vivo, iv, 5 mg/kg): 0.154 | t1/2α [8, 12]: 6.31 min | t1/2β [8, 12]: 86.6 min

TIMP-1: tissue inhibitor of metalloproteinase 1, protein inhibitor of MMPs
residence time bound to MMP-2 (MMP-2 [1]): 7 min and 6.9 min | residence time bound to MMP-9 (MMP-9 [2]; literature / previously reported): 8 min

B1: TIMP-4: tissue inhibitor of metalloproteinase, protein inhibitor of MMPs (protein, UniProt Q99727 30-224, looked up)
Metalloproteinase inhibitor 4: CSCAPAHPQQHICHSALVIRAKISSEKVVPASADPADTEKMLRYEIKQIKMFKGFEKVKDVQYIYTPFDSSLCGVKLEANSQKQYLLTGQVLSDGKVFIHLCNYIEPWEDLSLVQRESLNHHYHLNCGCQITTCYTVPCTISAPNECLWTDWLLERKLYGYQAQHYVCMKHVDGTCSWYRGHLPLRKEFVDIVQP
residence time bound to MMP-14 (MMP-14 [9]): 39 min
